Data as given in patent publication US20220363649A1, “ORGANIC COMPOUNDS” (Rutgers, The State University of New Jersey, priority 2018, published 2022).

Assays:
[1] = tested on: Sprague-Dawley rats; test: STZ-induced thermal hyperalgesia model in diabetic rats; assay type: in vivo, rat; conditions: i.p.
Method: (§1) Male Sprague-Dawley rats weighing 225-250 grams were employed. Streptozotocin (STZ, 50 mg/kg) freshly dissolved in 0.9% sterile saline was injected intraperitoneally on day 0. Three days later, diabetes was confirmed by existence of blood glucose >350 mg/dL as measured by glucometer. Animal health was monitored biweekly for 14 days, at which point mechanical allodynia and thermal hyperalgesia were measured and confirmed. During the course of the study, the animals were housed individually under constant temperature, humidity and a 12-hour light-dark cycle. The animals were tested prior to study inclusion for mechanical allodynia and thermal hyperalgesia.
(§2) The behavioral assessments include mechanical allodynia and thermal hyperalgesia. Test articles, vehicle and gabapentin were administered intraperitoneally on Days 14 or 21.
Thermal hyperalgesia: The animals were tested prior to study inclusion for thermal hyperalgesia on day 13 and Day 20. Thermal hyperalgesia was measured at 1 and 2 hours after dosing of vehicle or test article on Day 14 and Day 21 by using the IITC Model-336G (IITC INC. USA) apparatus. Each rat was placed within a plastic box atop a glass floor for 20 to 30 minutes. A light beam under the floor was aimed at the plantar surface of the left hind paw. The time was measured automatically when the paw was withdrawn away from the thermal stimulus. […]

[2] = tested on: Sprague-Dawley rats; test: Paclitaxel-induced cold hyperalgesia model in rats; assay type: in vivo, rat; conditions: i.p.
Method: (§3) Male Sprague-Dawley rats weighing 240+20 grams were employed. Paclitaxel (brand name TAXOL®, 2 mg/kg) is injected intraperitoneally (i.p.) on days 1, 3, 5 and 7 with a total cumulative dose of 8 mg/kg. During the course of the study, the animals were housed individually under constant temperature, humidity and a 12-hour light-dark cycle.
(§4) Test articles, vehicle and gabapentin were administered intraperitoneally on Days 14 or 21.
Cold hyperalgesia was assessed by the […] and measured prior to Paclitaxel injections (Day 0) and test article administration (Days 13 or 20) and at 0.5 hour after dosing of vehicle or test articles on Days 14 or 21. The animals were randomized to each groups based on pre-dose cold hyperalgesia values (Days 13 or 20). Test rat was placed in 2.5 cm depth of a 0-2° C. ice water bath in a Plexiglas arena 32×32 cm×27 cm high. Withdrawal latency of the left paw was recorded and averaged twice for cold hyperalgesia assessment. A 20 sec cut time was employed.

[3] = tested on: Sprague-Dawley rats; test: Rat formalin test; assay type: in vivo; conditions: 20 and 40 mg/kg, i.p., hind paw licking time
Method: One day after the rotarod test, vehicle and test articles were administered intraperitoneally again to groups of 6 Sprague-Dawley male rats weighting 180±20 g, 30 minutes prior to sub-plantar injection of formalin (0.05 ml, 2% solution). The hind paw licking time was recorded during a 0-35 min period at 5-min intervals after formalin challenge as a measure of analgesic activity of the test compound.

[4] = tested on: CD-1 mice; test: Mouse tail flick test, potentiation of morphine analgesia; assay type: in vivo; conditions: mouse model of acute pain, n=8, i.p.; morphine SC
Method: Male young CD-1 mice (at the age of 7-8 weeks) were used for this study. Tail flick latency was determined using a lamp device (design derived from D'Amour & Smith, 1941, J. Pharmacol. Exp. Ther. 72(1):74-79). The behavioral endpoint was defined as a flick of the tail out of the path of the light. The intensity of the light was adjusted to provide a baseline response time of approximately 2-4 seconds. The light beam was focused approximately 4 cm from the tip of the tail. A cut off time of 20 seconds was used to prevent tissue damage. Mice received a single intra-peritoneal (IP) injection of either vehicle (saline) or test substance at appropriate doses followed immediately by a single sub-cutaneous (SC) administration of saline or Morphine at the appropriate dose for each group. Thirty minutes after the SC administration, the animals were gently restrained in a manner which allowed access to the tail and positioned beneath a light beam (D'Amour & Smith, 1941, J Pharmacol Exp Ther 72(1):74-79) with the tail aligned for measurement at approximately 4 cm from tail tip. The lamp device automatically timed each tail flick response once the tail was flicked away from the light beam by a sensor beneath the platform.

[5] = biological target: T1, S1R (Cavia porcellus, UniProt Q60492); test: S1R radiolabeled binding assay, guinea pig whole brain, [3H]-pentazocine; conditions: guinea pig brain membranes (Compounds 1-9); read-out: S1R Ki
T1 construct: performed using Guinea pig whole brain according to the protocol previously reported; from tissue; host or cells: guinea pig whole brain membrane preparations
T1 sequence (Q60492 whole entry): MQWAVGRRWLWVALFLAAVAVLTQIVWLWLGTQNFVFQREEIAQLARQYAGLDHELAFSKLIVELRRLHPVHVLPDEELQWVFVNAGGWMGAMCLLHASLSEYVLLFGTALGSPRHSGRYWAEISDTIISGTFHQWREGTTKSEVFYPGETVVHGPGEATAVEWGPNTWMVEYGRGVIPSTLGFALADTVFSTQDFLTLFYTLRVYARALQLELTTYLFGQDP
Method: Following 1 h incubation at 25° C., the binding assay was terminated by addition of cold buffer. The mixture was then filtered through Whatman GF/B filters and washed with cold buffer. Radioactivity was identified using the liquid scintillation counter.
Receptor binding data were analyzed by nonlinear regression of saturation and competition curves using the GraphPad Prism 7.0 software (GraphPad Software, La Jolla, Calif.).
(§5) Radiolabeled binding assays were conducted using two different species.

[6] = tested on: Sprague-Dawley rats; test: Rat rotarod test (motor incoordination); assay type: in vivo; conditions: i.p., male Sprague-Dawley rats
Method: Groups of 6 pre-selected male (Sprague-Dawley) rats weighing 180±20 g were included to the study motor coordination. Rats were trained on a rod at a continuous accelerating speed from 4 to 30 rpm/min during a time period of 4 minutes for at least 3 times before the study. Rats were randomly assigned to different groups with similar baseline.
Vehicle and test articles were administered by intraperitoneal (i.p.) injection. The rats were placed on the accelerating rotarod at 30, 60, 90 and 120 min post dosing, and the time (seconds) the rat remained on the rotarod was recorded.

[7] = tested on: Sprague-Dawley rats; test: STZ-induced mechanical allodynia model in diabetic rats; assay type: in vivo, rat; conditions: i.p., von Frey
Method: as §1, §2
Mechanical allodynia was assessed by the manual von Frey test and measured prior to STZ injections (Day 0). The animals were then randomized to each groups based on pre-dose mechanical allodynia values (Day 13 and Day 20). The mechanical allodynia test was performed again at 0.5 and 1.5 hours after vehicle, test article or gabapentin administration on Day 14. […] Mechanical threshold (50% g threshold) was assessed using the up- and down-method following the procedure described by Chaplan, et al., 1994, J Neurosci Methods 53:55-63).

[8] = tested on: Sprague-Dawley rats; test: Paclitaxel-induced mechanical allodynia model in rats; assay type: in vivo, rat; conditions: i.p., von Frey
Method: as §3, §4
Mechanical allodynia was assessed by the manual von Frey test and measured prior to Paclitaxel injections (Day 0) and test article administration (Days 13 or 20) and at 0.5 hour after dosing of vehicle or test articles on Days 14 or 21. The animals were randomized to each groups based on pre-dose mechanical allodynia values (Days 13 or 20). The animals were given 20 to 30 minutes to acclimatize prior to testing. The paw was touched with a series of 8 manual von Frey monofilaments with logarithmically incremental stiffness [3.61 (0.4 g), 3.84 (0.6 g), 4.08 (1.0 g), 4.31 (2.0 g), 4.56 (4.0 g), 4.74 (6.0 g), 4.93 (8.0 g), and 5.18 (15.0 g)]. […] Mechanical threshold (50% g threshold) was assessed using the up- and down-method following the procedure described by Chaplan, et al., 1994, J Neurosci Methods 53:55-63.

[9] = tested on: Sprague Dawley rats; test: Spinal nerve ligation (SNL) Chung model in rats, thermal hyperalgesia; assay type: in vivo, rat; conditions: two doses, Hargreaves method
Method: (§6) Groups of 6 male Sprague Dawley rats weighing 160-200 grams were used. Prior to surgery and post-operatively, the animals were housed socially under constant temperature, humidity, and a 12-hour light-dark cycle. Following acclimation to the animal colony for 7 days, the rats were tested for mechanical allodynia and thermal hyperalgesia for baseline (pre-dose) values on Day −1. On Day 0, the animals were anesthetized with pentobarbital (50 mg/kg, i.p.). The left paraspinal muscles were separated from the spinous processes (L4-S2) and the L6-S1 facet joint was nipped. The transverse process of L6 was removed to allow for identifying the location of the L5 and L6 spinal nerves. The left L5-L6 spinal nerves were isolated and tightly ligated with 6.0 silk sutures. The rats are allowed to recover for 13 days.
Following a four (4) day wash out “period”, the rats were tested in the thermal hyperalgesia test and randomized to balance treatment groups. On Day 19, the rats were administered vehicle, Compound 68 at two doses, or gabapentin 50 mg/kg, IP. At 15 and 75 minutes post-dose the thermal hyperalgesia is tested again.
Thermal hyperalgesia: Thermal hyperalgesia is measured by the Hargreaves method. […] The time is measured automatically when the paw is withdrawn away from the thermal stimulus. […]

[10] = biological target: T2, human S2R (Homo sapiens, UniProt Q5BJF2); test: Human S2R radiolabeled binding assay, Jurkat Clone E6-1 cell membranes, [3H] DTG; conditions: human membranes (Compounds 10-76)
T2 construct: performed using Jurkat cell line Clone E6-1 cells with 0.025 μM; endogenous in cells; host or cells: Jurkat Clone E6-1 cell membranes
T2 sequence (Q5BJF2 whole entry): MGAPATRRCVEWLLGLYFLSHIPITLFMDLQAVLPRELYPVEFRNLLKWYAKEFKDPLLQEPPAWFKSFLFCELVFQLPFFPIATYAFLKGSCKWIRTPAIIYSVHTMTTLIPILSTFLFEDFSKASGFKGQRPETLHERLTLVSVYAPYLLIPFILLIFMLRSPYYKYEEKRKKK
Method: The radiolabeled binding assay of the human S1R and S2R were performed using human jurkat cell membranes according to the protocol previously reported (Ganapathy, et al., 1999, J. Pharmacol. Exp. Ther. 289:251-60).
DTG as radioligand. […] The cells were incubated in RPMI 1640 Medium with 10% FBS, 100 U/ml penicillin and […] streptomycin. After incubation, the cells were suspended in 5 mM potassium phosphate buffer (pH=7.6). The membrane protein concentration was controlled at 5 mg/mL. The collected membrane protein was incubated with ligands in potassium phosphate buffer for 1 hour at room temperature and terminated by adding ice-cold buffer. Then the mixture is filtered with 0.7 μm syringe filter and washed three times. The radioactivity is determined by liquid scintillation spectrometry.
Radiolabeled binding assays were conducted using two different species. Compounds 1-9 were assayed using guinea pig brain membranes for the binding assays. Compounds 10-76 were assayed using human brain membranes for the binding assays.

[11] = biological target: T3, human S1R (Homo sapiens, UniProt Q99720); test: Human S1R radiolabeled binding assay, human jurkat cell membranes, [3H]-pentazocine; conditions: human membranes (Compounds 10-76)
T3 construct: experimentally determined in human jurkat cell membranes using 15.0 nM; endogenous in cells; host or cells: human Jurkat cell membranes
T3 sequence (Q99720 whole entry): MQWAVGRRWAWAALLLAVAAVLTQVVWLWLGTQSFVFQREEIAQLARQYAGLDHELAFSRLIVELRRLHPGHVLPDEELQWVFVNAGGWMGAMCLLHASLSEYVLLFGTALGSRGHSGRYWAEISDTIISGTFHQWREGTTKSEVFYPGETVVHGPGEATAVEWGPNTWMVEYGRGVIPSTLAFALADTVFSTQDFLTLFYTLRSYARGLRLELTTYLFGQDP
Method: The binding process was terminated by addition of cold buffer. Then, the mixture was filtered and washed with cold buffer. Radioactivity was identified using the TopCount NTX liquid scintillation counter (PerkinElmer, Waltham, Mass.).
as §5

[12] = tested on: Sprague Dawley rats; test: Spinal nerve ligation (SNL) Chung model in rats, mechanical allodynia; assay type: in vivo, rat; conditions: two doses, von Frey
Method: as §6
Rats were tested for mechanical allodynia and thermal hyperalgesia following acclimation on Day −1 for baseline (pre-dose) values. Following the recovery period, the rats were tested to verify the mechanical allodynia on Day 13. […]
Mechanical allodynia: The mechanical allodynia is assessed by the manual von Frey test (Chaplan up/down method using von Frey filaments on the plantar surface of the CFA injected paw). […] Mechanical threshold (50% g threshold) is assessed using the up- and down-method following the procedure described by Chaplan (Chaplan et al., 1994, J Neurosci Methods 53:55-63).

## Cn1nc(CN2CCCC2)nc1-c1ccc(C(C)(C)C)cc1 [Compound 8, 5-(4-(tert-butyl)phenyl)-1-methyl-3-(pyrrolidin-1-ylmethyl)-1H-1,2,4-triazole]
[1]
  analgesic activity, STZ-induced thermal hyperalgesia: exhibits analgesic activity
[2]
  analgesic activity, Paclitaxel-induced cold hyperalgesia: exhibits analgesic activity
[3]
  analgesic activity in rat formalin test: dose-dependent analgesic activity
[4]
  potentiation of morphine's analgesia, Tail Flick Test: potentiates morphine's analgesia
[5]
  Ki: 2.28 nM
[6]; 20 mg/kg
  motor incoordination effect in rat rotarod test: No motor incoordination effect
[6]; 40 mg/kg, t=60 min
  motor incoordination effect in rat rotarod test: very slight and temporary motor incoordination effect
[7]
  analgesic activity, STZ-induced mechanical allodynia: exhibits analgesic activity
[8]
  analgesic activity, Paclitaxel-induced mechanical allodynia: exhibits analgesic activity

## CC(C)n1nc(CN2CCC3(CC3)C2)nc1-c1ccc(C(C)(C)C)cc1 [Compound 68, 5-((5-(4-(tert-butyl)phenyl)-1-isopropyl-1H-1,2,4-triazol-3-yl)methyl)-5-azaspiro[2.4]heptane]
[9]
  analgesic activity, thermal hyperalgesia in SNL Chung model: exhibits analgesic activity
[10]
  Ki: 360 nM
[11]
  Ki: 0.75 nM
[12]
  analgesic activity, mechanical allodynia in SNL Chung model: exhibits analgesic activity
